{"source": "paper PMC6718988", "about": "“Bioactivity and Bactericidal Mechanism of Histidine-Rich β-Hairpin Peptide Against Gram-Negative Bacteria” (International Journal of Molecular Sciences, 2019)", "key": {"Gram-negative bacteria": {"test_system": "Gram-negative bacteria", "test": "MICs against Gram-negative strains (geometric mean, range)", "format": "cell-based", "summary_of_the_method": "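Broth microdilution in MHB with log-phase bacteria adjusted to about 1 × 10^5 CFU/mL; peptides tested at 0.25 to 128 μM in 0.01% acetic acid and 0.2% BSA.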"}, "[1]": {"test": "RP-HPLC retention time as measure of hydrophobicity", "format": "physicochemical", "conditions": "analytical Kromasil C18 column 4.6 mm × 250 mm, 5.0 μm, acetonitrile, flow 1.0 mL/min, used as measure of hydrophobicity", "procedure": "The hydrophobicities of the peptides in solution were reliably mirrored by their high-performance liquid chromatography (HPLC)retention times. The retention times for peptide HI2, HW2, HV2, HF2, and PG-1 were 11.13, 10.55, 12.20, 18.06 and 12.56 min, respectively, indicating the following hydrophobic order: HF2 > PG-1 > HV2 > HI2 > HW2(Table 1).\nThe designed peptides were synthesized and purified by GL Biochem (Shanghai, China). Acetonitrile was used on an analytical Kromasil C18 column (4.6 mm × 250 mm, 5.0 μm, LC 3000, Beijing, China), and the purity of the peptides was determined to be greater than 95% via reversed-phase high-performance liquid chromatography (RP-HPLC) with a flow rate of 1.0 mL/min. The experimental molecular weights of the peptides were evaluated via ESI-MS analysis, and these values were very close to the calculated masses. Next, the peptides were dissolved in deionized water at a concentration of 2.56 mM, and the peptide solutions were stored at −20 °C."}, "[2]": {"test_system": "TNF-α production in RAW264.7 cells", "test": "Inhibition of endotoxin-induced inflammation (LPS-stimulated TNF-α production)", "format": "cell-based, murine", "conditions": "32 μM peptide, 100 ng/mL LPS, 18 h, 37 °C, ELISA", "procedure": "TNF-α production by the RAW264.7 cells was stimulated with LPS to evaluate the LPS neutralization characteristics of the peptides. Briefly, (1.0–2.0) × 10^5 RAW264.7 cells were plated in 96-well plates and stimulated with LPS (100 ng/mL) for 18 h at 37 °C in the absence or presence of peptides (2–64 μM). The negative and positive controls were untreated cells and cells treated with LPS alone. The supernatant was used to evaluate the endotoxin neutralizing ability of the antimicrobial peptides by analyzing the TNF-α production using […] ELISA (Boster, Wuhan, China)."}, "Gram-positive bacteria": {"test_system": "Gram-positive bacteria", "conditions": "24 h", "summary_of_the_method": "(§1)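 Broth microdilution in MHB, inoculum ~1 × 10^5 CFU/mL from log-phase cultures, peptides 0.25–128 μM in 0.01% acetic acid/0.2% BSA. After 24 h at 37 °C, absorbance at 492 nm was read. MIC was the lowest concentration with no absorbance increase over the microbe-free control, from three independent experiments.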"}, "[3]": {"test_system": "Gram-positive and Gram-negative bacteria", "conditions": "24 h", "summary_of_the_method": "as §1"}, "E. coli ATCC25922": {"test_system": "E. coli ATCC25922", "test": "SEM characterization of cell morphology", "format": "cell-based", "conditions": "E. coli ATCC25922, 1 × MIC (HV2 8 μM, PG-1 4 μM), 1 h", "procedure": "For the SEM sample preparation, E. coli ATCC25922 cells were cultured at 37 °C to mid-log phase in MH broth with constant shaking at 220 rpm, centrifuged at 1000 g and then adjusted to an OD600 of 0.1–0.2 in PBS. […] Bacteria incubated with PBS served as controls. After the incubation, the mixture was centrifuged at 5000 g for 5 min, and the collected bacteria were washed three times with PBS. Approximately 2.5% (w/v) glutaraldehyde was added for fixation at 4 °C overnight, followed by washing three times with PBS. The samples were dehydrated with 50%, 70%, 90%, 100% ethanol for 10 min. A mixture of ethanol and tert-butanol was added to the dried bacterial cells for 30 min, and then t-butanol was added for 1 h. Finally, the samples were dehydrated and coated with liquid CO2 in a critical point dryer and then observed using a Hitachi S-4800 SEM (Hitachi, Tokyo, Japan)."}}, "note": "Where a SMILES comes first, the peptide text is derived from it. [ ]: non-standard residue; d: D form.", "data": [{"smiles": "CC(C)[C@H](NC(=O)CNC(=O)[C@H]1CCCN1C(=O)[C@@H](NC(=O)[C@H](Cc1c[nH]cn1)NC(=O)[C@@H](NC(=O)[C@H](Cc1c[nH]cn1)NC(=O)[C@@H](NC(=O)[C@H](CCCNC(=N)N)NC(=O)[C@@H](N)CCCNC(=N)N)C(C)C)C(C)C)C(C)C)C(=O)N[C@@H](Cc1c[nH]cn1)C(=O)N[C@H](C(=O)N[C@@H](Cc1c[nH]cn1)C(=O)N[C@H](C(=O)N[C@@H](CCCNC(=N)N)C(=O)N[C@@H](CCCNC(=N)N)C(N)=O)C(C)C)C(C)C", "note": "[HV2] (H-RRVHVHV[dP]GVHVHVRR-NH2; N-terminus assumed)", "values": [{"measurement": "MBC (GM), geometric mean of MICs, Gram (−)", "setting": "Gram-negative bacteria; Gram-negative strains, 256 μM used where no activity at 128 μM", "result": 7.13, "unit": "µM"}, {"measurement": "MIC against Gram-negative bacteria", "setting": "Gram-negative bacteria; range over the Gram-negative strains of Table 2", "result": "4 to 8", "unit": "µM"}, {"measurement": "Retention Time", "setting": "[1]", "result": 12.20, "unit": "min"}, {"measurement": "neutralizing activity against LPS (TNF-α level)", "setting": "[2]", "result": "~100", "unit": "%"}, {"measurement": "MBC (GM), geometric mean of MICs, Gram (+)", "setting": "Gram-positive bacteria", "result": 256, "unit": "µM"}, {"measurement": "MBC (GM), geometric mean of MICs, Gram (+,−)", "setting": "[3]", "result": 23.52, "unit": "µM"}, {"measurement": "cell morphology by SEM", "setting": "E. coli ATCC25922", "result": "rough and wrinkled"}]}]}
